Earlier results in patent publication US20240269238A1, “Therapeutic Regimens and Methods for Reducing Body Weight in a Subject with Fatty Liver Disease using a GLP-1R and GCGR Agonist” (Spitfire Pharma LLC, priority 2022, published 2024).

How the values were obtained:
liver fat content = conditions: 6 weeks; cited from earlier work
[1] = over 26 weeks of administration; cited from earlier work

## CCCCCCCCCCCCCCCC(=O)N[C@@H](CCC(=O)NCCCC[C@H](NC(=O)[C@H](CC(=O)O)NC(=O)[C@H](CO)NC(=O)[C@@H](NC(=O)[C@H](Cc1ccccc1)NC(=O)[C@@H](NC(=O)CNC(=O)[C@H](CCC(N)=O)NC(=O)[C@H](CO)NC(=O)[C@@H](N)Cc1c[nH]cn1)[C@@H](C)O)[C@@H](C)O)C(=O)N[C@@H](CO)C(=O)N[C@@H](CCC(=O)O)C(=O)N[C@@H](Cc1ccc(O)cc1)C(=O)N[C@@H](CC(C)C)C(=O)N[C@@H](CC(=O)O)C(=O)N[C@@H](CO)C(=O)N[C@@H](CCC(=O)O)C(=O)N[C@@H](CCCNC(=N)N)C(=O)N[C@@H](C)C(=O)N[C@@H](CCCNC(=N)N)C(=O)N[C@@H](CC(=O)O)C(=O)N[C@@H](Cc1ccccc1)C(=O)N[C@H](C(=O)N[C@@H](C)C(=O)N[C@@H](Cc1c[nH]c2ccccc12)C(=O)N[C@@H](CC(C)C)C(=O)N[C@@H](CCC(=O)O)C(=O)N[C@@H](C)C(=O)NCC(=O)NCC(=O)O)C(C)C)C(=O)O [cotadutide]
Liver fat content
  reduction in liver fat content: 39%
[1]
  weight loss: 5.4%
